Measurements from patent US11878970B2, “Allosteric chromenone inhibitors of phosphoinositide 3-kinase (PI3K) for the treatment of disease” (Petra Pharma Corporation, priority 2021, dated 2024).

What was measured:
[1] = target: T1, PI3K-α (PIK3CA) H1047R mutant, p110α/p85α complex (Homo sapiens, UniProt P42336, H1047R); assay: PI3K-alpha kinase (PIK3CA) biochemical activity, ADP-Glo, H1047R mutant; conditions: Soy PI lipid substrate
T1 construct: Recombinant, catalytically active human full length PIK3KA Wild-type and H1047R mutant; 6×His (N); purchased EMD Millipore Sigma 14-792M
T1 sequence (P42336 whole entry H1047R): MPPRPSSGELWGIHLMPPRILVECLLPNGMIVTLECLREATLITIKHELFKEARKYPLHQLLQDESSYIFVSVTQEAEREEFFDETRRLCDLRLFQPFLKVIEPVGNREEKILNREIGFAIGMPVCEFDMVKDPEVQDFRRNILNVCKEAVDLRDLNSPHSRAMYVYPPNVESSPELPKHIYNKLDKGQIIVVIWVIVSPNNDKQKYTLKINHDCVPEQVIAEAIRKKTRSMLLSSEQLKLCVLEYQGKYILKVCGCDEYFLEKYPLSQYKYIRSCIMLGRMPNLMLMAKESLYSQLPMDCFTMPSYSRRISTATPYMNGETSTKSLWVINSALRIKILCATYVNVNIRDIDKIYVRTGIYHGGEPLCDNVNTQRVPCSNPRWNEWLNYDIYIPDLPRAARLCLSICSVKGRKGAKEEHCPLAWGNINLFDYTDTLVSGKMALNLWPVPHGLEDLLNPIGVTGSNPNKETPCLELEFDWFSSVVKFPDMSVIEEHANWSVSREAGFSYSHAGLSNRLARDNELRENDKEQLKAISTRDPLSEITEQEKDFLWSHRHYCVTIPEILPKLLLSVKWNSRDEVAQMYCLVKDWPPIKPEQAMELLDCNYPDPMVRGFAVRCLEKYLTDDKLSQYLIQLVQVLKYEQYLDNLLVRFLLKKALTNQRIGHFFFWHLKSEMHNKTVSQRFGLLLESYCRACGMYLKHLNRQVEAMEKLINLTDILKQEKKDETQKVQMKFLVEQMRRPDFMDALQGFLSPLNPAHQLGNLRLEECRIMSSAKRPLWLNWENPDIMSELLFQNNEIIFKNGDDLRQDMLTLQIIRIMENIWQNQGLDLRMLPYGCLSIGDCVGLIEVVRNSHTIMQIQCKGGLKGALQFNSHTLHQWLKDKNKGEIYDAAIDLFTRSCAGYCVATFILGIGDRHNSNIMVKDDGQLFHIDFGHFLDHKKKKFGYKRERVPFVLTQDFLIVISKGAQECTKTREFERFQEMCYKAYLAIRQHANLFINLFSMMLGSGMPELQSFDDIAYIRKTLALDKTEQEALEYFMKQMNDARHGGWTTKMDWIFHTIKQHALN
T1 sequence (P27986 whole entry partner): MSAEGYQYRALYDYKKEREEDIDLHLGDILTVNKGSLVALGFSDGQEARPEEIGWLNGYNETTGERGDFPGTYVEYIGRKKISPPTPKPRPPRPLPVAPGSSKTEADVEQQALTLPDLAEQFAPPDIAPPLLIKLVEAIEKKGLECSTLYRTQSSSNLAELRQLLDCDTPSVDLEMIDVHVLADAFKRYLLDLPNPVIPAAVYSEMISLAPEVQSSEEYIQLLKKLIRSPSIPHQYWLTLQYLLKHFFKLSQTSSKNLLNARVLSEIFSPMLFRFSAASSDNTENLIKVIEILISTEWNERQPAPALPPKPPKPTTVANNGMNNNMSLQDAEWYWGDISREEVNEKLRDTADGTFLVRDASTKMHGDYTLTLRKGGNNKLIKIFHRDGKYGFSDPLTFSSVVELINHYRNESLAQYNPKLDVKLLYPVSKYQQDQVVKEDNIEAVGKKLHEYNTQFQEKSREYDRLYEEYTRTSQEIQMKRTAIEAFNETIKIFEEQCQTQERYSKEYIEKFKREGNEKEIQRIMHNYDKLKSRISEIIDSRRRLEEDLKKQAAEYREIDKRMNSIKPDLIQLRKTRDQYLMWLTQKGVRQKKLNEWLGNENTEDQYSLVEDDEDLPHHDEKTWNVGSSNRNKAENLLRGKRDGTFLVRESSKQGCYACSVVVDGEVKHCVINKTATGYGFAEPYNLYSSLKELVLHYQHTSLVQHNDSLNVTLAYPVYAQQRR
Excerpt: (§1) PI3K-Alpha Kinase (PIK3CA) Activity, Wild-Type and H1047R Mutant and Determining IC50 Values for Inhibitors
(§2) Recombinant, catalytically active human full length PIK3KA Wild-type and H1047R mutant were purchased as 1:1 complex of N-terminal 6×his tagged p110α (catalytic) and untagged p85α (regulatory subunit) from EMD Millipore Sigma (cat. no. 14-602M and 14-792M, respectively). PIP2diC8 (Avanti Polar Lipids Inc., cat. no. 850185) or Soy PI (Avanti Polar Lipids Inc., cat. No. 840044P) was used as lipid substrate. PIP2diC8 or PI lyophilized powder was dissolved in milliQ water to a concentration of 1 mM just before use. 10 mM stock compounds in DMSO were serially diluted 1:3 to generate a 10-point curve and plated using an acoustic liquid handler system (Echo 550 series instrument, Labcyte). A 10× intermediate compound plate (200 uM starting compound concentration and 10% DMSO) was prepared before starting the reaction. A typical reaction mixture (50 uL) comprised 40 mM HEPES buffer, pH 7.4, 25 mM MgCl2, 0.01% v/v triton-X-100, 1% v/v DMSO, 20 mM NaCl, 1-5 nM WT or H1047R PI3K protein, 20 uM ATP, and 50 uM PIP2diC8 or Soy PI. 1% DMSO buffer alone without test compound was employed as MAX control (full activity in the absence of any inhibitor), and no enzyme control was used to determine the level of background Adenosine 5′-diphosphate (ADP) (MIN control). First, Wild-type (WT) and H1047R mutant protein in kinase buffer with all components except ATP were incubated with or without compound at 27° C. for 1 h. After the pre-incubation, the reaction was initiated by the addition of 20 uL of 50 uM ATP (20 uM final concentration). The reaction was allowed to proceed until about 10% conversion of ATP (2 uM ADP) at 27° C. After that time, 5 uL of reaction was mixed with 5 uL of ADP-Kinase Glo Reagent (ADP-Glo Kinase assay kit, Promega cat. no. V9102) supplemented with MgCl2 10 mM to stop the reaction and deplete the remaining ATP for 40 min at room temperature. Then, 10 uL of Kinase Detection Reagent (ADP-Glo Kinase assay kit, Promega cat. no. V9102) was added to simultaneously convert ADP to ATP and allow the newly synthesized ATP to be measured using a luciferase/luciferin reaction. After 30 min at room temperature the light generated was measured using a luminometer (EnVision plate reader, Perkin Elmer). Process data through Genedata-Screener tool. Relative IC50 values are determined using luminescence units by calculating percent inhibition with respect to on-plate “MIN” and “MAX” controls. Data was analyzed using a 4-parameter nonlinear logistic equation (four-parameter logistic concentration-response curve): Y=bot+[(top−bot)/1+(x/IC50)slope] where Y=% inhibition, X=concentration yielding y % inhibition, Bottom=minimum value of y attained by curve, Top=maximum value of y attained by curve and Slope=steepness of curve at IC50. % Inh=[(median Max−x/median Max−median Min)]·100 IC50: concentration of compound that reduces a given response (ligand binding, enzyme response) by 50%. IC50 relative: concentration giving half the compound's maximum response.

[2] = target: T2, PI3K-α (PIK3CA) wild-type (WT), p110α/p85α complex (Homo sapiens, UniProt P42336); assay: PI3K-alpha kinase (PIK3CA) biochemical activity, ADP-Glo, wild-type; conditions: Soy PI lipid substrate
T2 construct: Recombinant, catalytically active human full length PIK3KA Wild-type and H1047R mutant; 6×His (N); purchased EMD Millipore Sigma 14-602M
Excerpt: as §1, §2

Compound	IC50 [1]	IC50 [2]
Cc1cc(C(C)Nc2ccc(C)nc2C(=O)O)c2oc(-c3cc4ccccc4[nH]3)cc(=O)c2c1 (centres unmarked) [Example 99, 3-[1-[2-(1H-Indol-2-yl)-6-methyl-4-oxo-chromen-8-yl]ethylamino]-6-methyl-pyridine-2-carboxylic acid]	1000 to 5000 nM	1000 to 5000 nM
Cc1c(-c2ccc3nn(C)cc3c2)oc2c(C(C)Nc3ccccc3C(=O)O)cc(F)cc2c1=O (single isomer, unassigned) [Example 57, 2-[1-[6-Fluoro-3-methyl-2-(2-methylindazol-5-yl)-4-oxo-chromen-8-yl]ethylamino]benzoic acid]	1000 to 5000 nM	1000 to 5000 nM
Cc1cc(C(C)Nc2ccccc2C(=O)O)c2oc(-c3ccc4ccnn4c3)c(C)c(=O)c2c1 (single isomer, unassigned) [Example 157, 2-[1-(3,6-Dimethyl-4-oxo-2-pyrazolo[1,5-a]pyridin-6-yl-chromen-8-yl)ethylamino]benzoic acid]	< 500 nM	1000 to 5000 nM
Cc1cc(C(C)Nc2ccccc2C(=O)O)c2oc(-c3ccc4c(c3)CN(C)C4=O)cc(=O)c2c1 (centres unmarked) [Example 30, 2-[1-[6-Methyl-2-(2-methyl-1-oxo-isoindolin-5-yl)-4-oxo-chromen-8-yl]ethylamino]benzoic acid]	< 500 nM	1000 to 5000 nM
Cc1cc(C(C)Nc2ccccc2C(=O)O)c2oc(-c3ccc4nncn4c3)cc(=O)c2c1 (single isomer, unassigned) [Example 76, 2-[1-[6-Methyl-4-oxo-2-([1,2,4]triazolo[4,3-a]pyridin-6-yl)chromen-8-yl]ethylamino]benzoic acid]	< 500 nM	> 10000 nM
Cc1cc(C(C)Nc2ccccc2C(=O)O)c2oc(-c3c4ccccc4nn3C)cc(=O)c2c1 (single isomer, unassigned) [Example 119, 2-[1-[6-Methyl-2-(2-methylindazol-3-yl)-4-oxo-chromen-8-yl]ethylamino]benzoic acid]	1000 to 5000 nM	1000 to 5000 nM
Cc1cc(C(C)Nc2ccccc2C(=O)O)c2oc(-c3cccc4c3cnn4C)cc(=O)c2c1 (single isomer, unassigned) [Example 136, 2-[1-[6-Methyl-2-(1-methylindazol-4-yl)-4-oxo-chromen-8-yl]ethylamino]benzoic acid]	< 500 nM	1000 to 5000 nM
Cc1cc(C(C)Nc2ccccc2C(=O)O)c2oc(-c3nccc4cn(C)nc34)cc(=O)c2c1 (single isomer, unassigned) [Example 98, 2-[1-[6-Methyl-2-(2-methylpyrazolo[3,4-c]pyridin-7-yl)-4-oxo-chromen-8-yl]ethylamino]benzoic acid]	5000 to 10000 nM	5000 to 10000 nM
Cc1cc(C(C)Nc2ccc(Cl)c(F)c2C(=O)O)c2oc(-c3ccc4nc(C)cn4c3)cc(=O)c2c1 (single isomer, unassigned) [Example 183, 3-chloro-2-fluoro-6-[1-[6-methyl-2-(2-methylimidazo[1,2-a]pyridin-6-yl)-4-oxo-chromen-8-yl]ethylamino]benzoic acid]	< 500 nM	500 to 1000 nM

The remaining lines, values ahead:

IC50 [1]	IC50 [2]	Compound
< 500 nM	1000 to 5000 nM	Cc1cc(C(C)Nc2ccccc2C(=O)O)c2oc(-n3nnc4ccccc43)cc(=O)c2c1 (single isomer, unassigned) [Example 85, 2-[1-[2-(Benzotriazol-1-yl)-6-methyl-4-oxo-chromen-8-yl]ethylamino]benzoic acid]
1000 to 5000 nM	5000 to 10000 nM	Cc1cc(C(C)Nc2ccccc2C(=O)O)c2oc(-c3cn4ccccc4n3)cc(=O)c2c1 (single isomer, unassigned) [Example 66, 2-[1-(2-Imidazo[1,2-a]pyridin-2-yl-6-methyl-4-oxo-chromen-8-yl)ethylamino]benzoic acid]
< 500 nM	500 to 1000 nM	Cc1cc(C(C)Nc2ccc(C)nc2C(=O)O)c2oc(-c3ccc4nn(C)cc4c3)c(C)c(=O)c2c1 (single isomer, unassigned) [Example 175, 3-[1-[3,6-Dimethyl-2-(2-methylindazol-5-yl)-4-oxo-chromen-8-yl]ethylamino]-6-methyl-pyridine-2-carboxylic acid]
< 500 nM	500 to 1000 nM	Cc1cc(C(C)Nc2ccccc2C(=O)O)c2oc(-c3ncc4cc(C)[nH]c4n3)cc(=O)c2c1 (single isomer, unassigned) [Example 72, 2-[1-[6-Methyl-2-(6-methyl-7H-pyrrolo[2,3-d]pyrimidin-2-yl)-4-oxo-chromen-8-yl]ethylamino]benzoic acid]
500 to 1000 nM	1000 to 5000 nM	Cc1cc(C(C)Nc2ccccc2C(=O)O)c2oc(-c3ccn4c(-c5cccnc5)c(C)nc4c3)cc(=O)c2c1 (single isomer, unassigned) [Example 112, 2-[1-[6-Methyl-2-[2-methyl-3-(3-pyridyl)imidazo[1,2-a]pyridin-7-yl]-4-oxo-chromen-8-yl]ethylamino]benzoic acid]
< 500 nM	1000 to 5000 nM	Cc1cc(C(C)Nc2ccccc2C(=O)O)c2oc(-c3ccc4nc(C(F)(F)F)cn4c3)c(C)c(=O)c2c1 (single isomer, unassigned) [Example 186, 2-[1-[3,6-Dimethyl-4-oxo-2-[2-(trifluoromethyl)imidazo[1,2-a]pyridin-6-yl]chromen-8-yl]ethylamino]benzoic acid]
< 500 nM	< 500 nM	Cc1cc(C(C)Nc2ccccc2C(=O)O)c2oc(-n3ncc4ncccc43)cc(=O)c2c1 (single isomer, unassigned) [Example 48, 2-[1-(6-Methyl-4-oxo-2-pyrazolo[4,3-b]pyridin-1-yl-chromen-8-yl)ethylamino]benzoic acid]
< 500 nM	1000 to 5000 nM	Cc1cc(C(C)Nc2ccccc2C(=O)O)c2oc(-c3ccc4c(C)n[nH]c4c3)cc(=O)c2c1 (single isomer, unassigned) [Example 28, 2-[1-[6-Methyl-2-(3-methyl-1H-indazol-6-yl)-4-oxo-chromen-8-yl]ethylamino]benzoic acid]
< 500 nM	1000 to 5000 nM	Cc1cc(C(C)Nc2ccc(Cl)c(F)c2C(=O)O)c2oc(-c3c(C)nc4ccccn34)cc(=O)c2c1 (single isomer, unassigned) [Example 182, 3-Chloro-2-fluoro-6-[1-[6-methyl-2-(2-methylimidazo[1,2-a]pyridin-3-yl)-4-oxo-chromen-8-yl]ethylamino]benzoic acid]
< 500 nM	> 10000 nM	CC(Nc1ccc(Cl)nc1C(=O)O)c1cc(C(F)(F)F)cc2c(=O)cc(-c3cc4ccccc4[nH]3)oc12 (single isomer, unassigned) [Example 100, 6-Chloro-3-[1-[2-(1H-indol-2-yl)-4-oxo-6-(trifluoromethyl)chromen-8-yl]ethylamino]pyridine-2-carboxylic acid]
< 500 nM	1000 to 5000 nM	Cc1cc(C(C)Nc2ccccc2C(=O)O)c2oc(-c3ccc4nccn4n3)cc(=O)c2c1 (single isomer, unassigned) [Example 36, 2-[1-(2-Imidazo[1,2-b]pyridazin-6-yl-6-methyl-4-oxo-chromen-8-yl)ethylamino]benzoic acid]
< 500 nM	500 to 1000 nM	Cc1cc(C(C)Nc2ccccc2C(=O)O)c2oc(-c3nn(C)c4ccccc34)cc(=O)c2c1 (single isomer, unassigned) [Example 23, 2-[1-[6-Methyl-2-(1-methylindazol-3-yl)-4-oxo-chromen-8-yl]ethylamino]benzoic acid]
< 500 nM	1000 to 5000 nM	Cc1cc(C(C)Nc2ccccc2C(=O)O)c2oc(-c3ccc4c(cnn4C)n3)cc(=O)c2c1 (single isomer, unassigned) [Example 53, 2-[1-[6-Methyl-2-(1-methylpyrazolo[4,3-b]pyridin-5-yl)-4-oxo-chromen-8-yl]ethylamino]benzoic acid]
